Experimental data taken from paper PMC4932537, “Search for Potent and Selective Aurora A Inhibitors Based on General Ser/Thr Kinase Pharmacophore Model” (Pharmaceuticals, 2016).
Structures can show the parent of a compound that is named as a salt.

Experiments:
Aurora A = target: T1, Aurora A (Homo sapiens, UniProt O14965); experiment: Aurora A kinase inhibition (biochemical assay); settings: Table 1; read-out: Aurora A, IC50
T1 sequence (O14965 1-403): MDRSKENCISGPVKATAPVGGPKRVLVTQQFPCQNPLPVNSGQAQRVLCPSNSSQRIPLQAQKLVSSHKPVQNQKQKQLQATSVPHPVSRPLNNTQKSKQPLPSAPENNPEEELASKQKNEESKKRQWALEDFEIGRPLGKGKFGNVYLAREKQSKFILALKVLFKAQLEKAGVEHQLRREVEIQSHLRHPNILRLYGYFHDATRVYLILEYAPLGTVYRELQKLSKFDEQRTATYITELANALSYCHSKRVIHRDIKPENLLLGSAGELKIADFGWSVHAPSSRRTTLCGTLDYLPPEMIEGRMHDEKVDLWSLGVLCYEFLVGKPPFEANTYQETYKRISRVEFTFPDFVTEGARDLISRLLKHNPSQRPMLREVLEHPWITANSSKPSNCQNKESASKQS

Haspin = target: T2, Haspin (Homo sapiens, UniProt Q8TF76); experiment: Haspin kinase inhibition; format: biochemical; settings: Table 1
T2 sequence (Q8TF76 1-798): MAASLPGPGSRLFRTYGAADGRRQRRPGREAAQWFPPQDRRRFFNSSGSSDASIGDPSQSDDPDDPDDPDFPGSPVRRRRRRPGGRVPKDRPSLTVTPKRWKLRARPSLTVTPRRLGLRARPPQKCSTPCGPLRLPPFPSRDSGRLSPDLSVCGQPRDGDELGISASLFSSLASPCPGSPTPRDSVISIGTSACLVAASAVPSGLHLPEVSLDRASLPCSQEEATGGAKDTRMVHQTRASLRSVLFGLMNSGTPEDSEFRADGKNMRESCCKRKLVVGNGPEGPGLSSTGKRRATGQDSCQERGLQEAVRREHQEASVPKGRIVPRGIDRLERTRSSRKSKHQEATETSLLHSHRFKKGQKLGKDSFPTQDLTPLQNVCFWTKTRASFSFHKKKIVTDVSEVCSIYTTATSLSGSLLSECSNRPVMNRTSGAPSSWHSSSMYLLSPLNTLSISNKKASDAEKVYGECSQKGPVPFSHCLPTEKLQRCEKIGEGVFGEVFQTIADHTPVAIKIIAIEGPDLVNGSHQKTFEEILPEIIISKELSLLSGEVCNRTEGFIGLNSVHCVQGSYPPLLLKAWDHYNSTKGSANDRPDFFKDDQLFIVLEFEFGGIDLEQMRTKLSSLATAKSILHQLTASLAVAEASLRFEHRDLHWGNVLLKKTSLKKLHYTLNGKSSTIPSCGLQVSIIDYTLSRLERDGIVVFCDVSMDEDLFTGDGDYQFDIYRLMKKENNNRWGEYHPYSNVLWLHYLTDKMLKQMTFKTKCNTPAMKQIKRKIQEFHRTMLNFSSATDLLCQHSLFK
Text: Table 1 Activity of compounds fitting to general pharmacophore model against selected Ser/Thr kinases. | column: Haspin, IC50, μM

Aurora B = Aurora B (Homo sapiens, UniProt Q96GD4); experiment: Aurora B kinase inhibition; format: biochemical; settings: Table 1
Sequence of Aurora B (Q96GD4 whole entry): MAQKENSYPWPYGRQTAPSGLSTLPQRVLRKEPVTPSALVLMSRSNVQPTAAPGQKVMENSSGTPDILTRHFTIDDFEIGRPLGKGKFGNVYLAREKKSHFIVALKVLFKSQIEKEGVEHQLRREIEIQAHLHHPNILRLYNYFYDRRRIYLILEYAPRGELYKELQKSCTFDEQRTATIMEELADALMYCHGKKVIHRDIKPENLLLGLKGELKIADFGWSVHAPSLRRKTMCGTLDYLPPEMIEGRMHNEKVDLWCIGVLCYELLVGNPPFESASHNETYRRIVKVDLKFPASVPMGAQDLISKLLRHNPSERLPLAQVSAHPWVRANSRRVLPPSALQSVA

SMILES	IC50 (Aurora A)	IC50 (Haspin)	IC50 (Aurora B)
CCCc1cnc(Nc2cccc(C3CCN(C(=O)CN(C)C)CC3)n2)s1 [Compound 3, 2-(Dimethylamino)-1-(4-(6-(5-propylthiazol-2-ylamino)pyridin2-yl)piperidin-1-yl)ethanone]	1950 ± 220 nM	7060 ± 680 nM	1760 ± 160 nM
CCCc1cnc(Nc2cccc(C3CCN(C(=O)CN)CC3)n2)s1 [Compound 4, 2-Amino-1-(4-(6-(5-propylthiazol-2-ylamino)pyridin-2-yl)piperidin-1-yl)ethanone]	2080 ± 250 nM	80 ± 8 nM	1720 ± 190 nM
CCCc1cnc(Nc2cccc(C3CCN(C(=O)CNC)CC3)n2)s1 [Compound 5, 2-(Methylamino)-1-(4-(6-(5-propylthiazol-2-ylamino)pyridin-2-yl)piperidin-1-yl)ethanone]	1440 ± 130 nM	430 ± 34 nM	910 ± 80 nM
CCCc1cnc(Nc2cccc(C3CCN(C(=O)[C@@H](C)N)CC3)n2)s1 [Compound 6, (R)-2-Amino-1-(4-(6-(5-propylthiazol-2-ylamino)-pyridin-2-yl)piperidin-1-yl)propan-1-one]	1670 ± 170 nM	1120 ± 110 nM	1750 ± 180 nM

Continued, values first:

IC50 (Aurora A)	IC50 (Haspin)	IC50 (Aurora B)	SMILES
2060 ± 150 nM	1490 ± 150 nM	1450 ± 170 nM	CCCc1cnc(Nc2cccc(C3CCN(C(=O)C(C)(C)N)CC3)n2)s1 [Compound 1, 2-Amino-2-methyl-1-(4-(6-(5-propylthiazole-2-ylamino)pyridin-2-yl)piperidin-1-yl)propan-1-one hydrochloride]
2790 ± 300 nM	3670 ± 370 nM	2250 ± 230 nM	CCCc1cnc(Nc2cc(C(C)C)nc(C3CCN(C(=O)C(C)(C)N)CC3)n2)s1 [Compound 7, 2-Amino-1-(4-(4-isopropyl-6-(5-propylthiazol-2-ylamino)pyrimidin-2-yl)piperidin-1-yl)-2-methylpropan-1-one]
